What was measured:
Type in all cases: in vivo
Matricaria inermis [1] = assay: pre-emergence greenhouse test, MATIN; details: 6.25 g ai/ha
From the text: (§1) For the pre-emergence treatment, directly after sowing the active compounds, which had been suspended or emulsified in water, were applied by means of finely distributed nozzles. The containers were irrigated gently to promote germination and growth and subsequently covered with transparent plastic hoods until plant had rooted. This cover caused uniform germination of the tests plants, unless this was adversely affected by active compounds.
(§2) The respective herbicides A and/or safener were formulated as 10% by weight strength suspension concentrate and introduced to the spray liquor with the amount of solvent system used for applying the active compound. Herbicide B and/or safener were used as commercially available formulations and introduced to the spray liquor with the amount of solvent system used for applying the active compound. In the examples, the solvent used was water.
(§3) The test period extended over 21 days. During this time, the plants were tended, and their response to the treatments with active compound was evaluated.
(§4) The evaluation for the damage caused by the chemical compositions was carried out using a scale from 0 to 100%, compared to the untreated control plants. Here, 0 means no damage and 100 means complete destruction of the plants.

Galium aparine [2] = assay: post-emergence greenhouse test, GALAP
From the text: (§5) For the post-emergence treatment, the test plants were first grown to a height of 3 to 20 cm, depending on the plant habit, and only then treated. Here, the herbicidal compositions were suspended or emulsified in water as distribution medium and sprayed using finely distributing nozzles.
as §2, §3, §4

Polygonum convolvulus = assay: post-emergence greenhouse test, POLCO
From the text: as §5, §2, §3, §4

Setaria italica [3] = assay: post-emergence greenhouse test, SETIT
From the text: as §5, §2, §3, §4

Echinochloa crus-galli = assay: post-emergence greenhouse test, ECHCG
From the text: as §5, §2, §3, §4

Setaria italica [4] = assay: pre-emergence greenhouse test, SETIT; details: 25 g ai/ha
From the text: as §1, §2, §3, §4

Ipomoea purpurea = assay: pre-emergence greenhouse test, PHBPU
From the text: as §1, §2, §3, §4

Alopecurus myosuroides [5] = assay: pre-emergence greenhouse test, ALOMY; details: 12.5 g ai/ha
From the text: as §1, §2, §3, §4

Sorghum halepense [6] = assay: pre-emergence greenhouse test, SORHA; details: 3.13 g ai/ha
From the text: as §1, §2, §3, §4

Chenopodium album [7] = assay: post-emergence greenhouse test, CHEAL
From the text: as §5, §2, §3, §4

Galium aparine [8] = assay: pre-emergence greenhouse test, GALAP; details: 3.13 g ai/ha
From the text: as §1, §2, §3, §4

Alopecurus myosuroides [9] = assay: post-emergence greenhouse test, ALOMY
From the text: as §5, §2, §3, §4

Ambrosia artemisifolia = assay: pre-emergence greenhouse test, AMBEL; details: 12.5 g ai/ha
From the text: as §1, §2, §3, §4

Kochia scoparia [10] = assay: pre-emergence greenhouse test, KCHSC; details: 12.5 g ai/ha
From the text: as §1, §2, §3, §4

Kochia scoparia [11] = assay: post-emergence greenhouse test, KCHSC; details: 6.25 g ai/ha
From the text: as §5, §2, §3, §4

Bromus inermis = assay: pre-emergence greenhouse test, BROIN; details: 3.13 g ai/ha
From the text: as §1, §2, §3, §4

Chenopodium album [12] = assay: pre-emergence greenhouse test, CHEAL; details: 3.13 g ai/ha
From the text: as §1, §2, §3, §4

Sorghum halepense [13] = assay: post-emergence greenhouse test, SORHA; details: 1.6 g ai/ha
From the text: as §5, §2, §3, §4

Setaria faberii [14] = assay: pre-emergence greenhouse test, SETFA
From the text: as §1, §2, §3, §4

Solanum nigrum = assay: post-emergence greenhouse test, SOLNI; details: 13 g ai/ha
From the text: as §5, §2, §3, §4

Xanthium strumarium = assay: post-emergence greenhouse test, XANST
From the text: as §5, §2, §3, §4

Setaria lutescens = assay: post-emergence greenhouse test, SETLU; details: 1.6 g ai/ha
From the text: as §5, §2, §3, §4

Lolium multiflorum = assay: post-emergence greenhouse test, LOLMU; details: 12.5 g ai/ha, 20 DAT, Table 4
From the text: as §5, §2, §3, §4

Setaria faberii [15] = assay: post-emergence greenhouse test, SETFA; details: 12.5 g ai/ha, 20 DAT, Table 4
From the text: as §5, §2, §3, §4

Digitaria sanguinalis = assay: post-emergence greenhouse test, DIGSA; details: 3.13 g ai/ha, 20 DAT, Table 4
From the text: as §5, §2, §3, §4

Matricaria inermis [16] = assay: post-emergence greenhouse test, MATIN; details: 6.25 g ai/ha, 20 DAT, Table 4
From the text: as §5, §2, §3, §4

CC(C)N(C)S(=O)(=O)NC(=O)c1cc(-n2c(=O)cc(C(F)(F)F)n(C)c2=O)c(F)cc1Cl [saflufenacil]
85%: observed % activity (Solanum nigrum; 8 DAT) | observed % activity (Solanum nigrum; 20 DAT)
35%: observed % activity (Galium aparine [2]; 6.25 g ai/ha, 8 DAT) | observed % activity (Polygonum convolvulus; 1.6 g ai/ha, 8 DAT) | observed % activity (Chenopodium album [7]; 6.25 g ai/ha, 8 DAT) | observed % activity (Chenopodium album [7]; 6.25 g ai/ha, 20 DAT) | observed % activity (Chenopodium album [7]; 13 g ai/ha, 20 DAT) | observed % activity (Alopecurus myosuroides [9]; 13 g ai/ha, 8 DAT) | observed % activity (Sorghum halepense [13]; 20 DAT) | observed % activity (Setaria faberii [14]; 6.25 g ai/ha, 20 DAT) | observed % activity (Setaria faberii [14]; 12.5 g ai/ha, 20 DAT) | observed % activity (Xanthium strumarium; 1.6 g ai/ha, 8 DAT)
20%: observed % activity (Galium aparine [2]; 1.6 g ai/ha, 20 DAT) | observed % activity (Galium aparine [2]; 3.1 g ai/ha, 20 DAT) | observed % activity (Setaria italica [3]; 6.25 g ai/ha, 20 DAT) | observed % activity (Alopecurus myosuroides [9]; 6.25 g ai/ha, 8 DAT) | observed % activity (Sorghum halepense [13]; 8 DAT) | observed % activity (Setaria faberii [14]; 12.5 g ai/ha, 8 DAT)
98%: observed % activity (Matricaria inermis [1]; 20 DAT) | observed % activity (Polygonum convolvulus; 13 g ai/ha, 20 DAT)
40%: observed % activity (Setaria italica [4]; 8 DAT) | observed % activity (Galium aparine [8]; 8 DAT) | observed % activity (Galium aparine [8]; 20 DAT)
15%: observed % activity (Galium aparine [2]; 1.6 g ai/ha, 8 DAT) | observed % activity (Setaria italica [3]; 3.1 g ai/ha, 20 DAT) | observed % activity (Echinochloa crus-galli; 13 g ai/ha, 8 DAT) | observed % activity (Alopecurus myosuroides [9]; 13 g ai/ha, 20 DAT)
75%: observed % activity (Kochia scoparia [10]; 8 DAT) | observed % activity (Chenopodium album [12]; 8 DAT) | observed % activity (Xanthium strumarium; 3.1 g ai/ha, 20 DAT)
55%: observed % activity (Setaria italica [4]; 20 DAT)
50%: observed % activity (Ipomoea purpurea; 3.13 g ai/ha, 20 DAT)
10%: observed % activity (Echinochloa crus-galli; 1.6 g ai/ha, 8 DAT) | observed % activity (Echinochloa crus-galli; 6.25 g ai/ha, 8 DAT) | observed % activity (Setaria lutescens; 20 DAT)
45%: observed % activity (Ipomoea purpurea; 3.13 g ai/ha, 8 DAT) | observed % activity (Chenopodium album [7]; 13 g ai/ha, 8 DAT) | observed % activity (Xanthium strumarium; 1.6 g ai/ha, 20 DAT)
70%: observed % activity (Galium aparine [2]; 13 g ai/ha, 20 DAT) | observed % activity (Ambrosia artemisifolia; 8 DAT) | observed % activity (Xanthium strumarium; 3.1 g ai/ha, 8 DAT) | observed % activity (Xanthium strumarium; 6.25 g ai/ha, 8 DAT)
95%: observed % activity (Matricaria inermis [1]; 8 DAT) | observed % activity (Polygonum convolvulus; 13 g ai/ha, 8 DAT)
25%: observed % activity (Galium aparine [2]; 3.1 g ai/ha, 8 DAT)
80%: observed % activity (Galium aparine [2]; 13 g ai/ha, 8 DAT) | observed % activity (Ipomoea purpurea; 6.25 g ai/ha, 8 DAT) | observed % activity (Ipomoea purpurea; 6.25 g ai/ha, 20 DAT) | observed % activity (Ambrosia artemisifolia; 20 DAT) | observed % activity (Kochia scoparia [10]; 20 DAT) | observed % activity (Xanthium strumarium; 6.25 g ai/ha, 20 DAT)
30%: observed % activity (Galium aparine [2]; 6.25 g ai/ha, 20 DAT) | observed % activity (Polygonum convolvulus; 1.6 g ai/ha, 20 DAT) | observed % activity (Setaria italica [3]; 3.1 g ai/ha, 8 DAT) | observed % activity (Setaria italica [3]; 6.25 g ai/ha, 8 DAT) | observed % activity (Alopecurus myosuroides [5]; 8 DAT) | observed % activity (Alopecurus myosuroides [5]; 20 DAT) | observed % activity (Kochia scoparia [11]; 20 DAT) | observed % activity (Setaria lutescens; 8 DAT)
0%: observed % activity (Echinochloa crus-galli; 1.6 g ai/ha, 20 DAT) | observed % activity (Echinochloa crus-galli; 6.25 g ai/ha, 20 DAT) | observed % activity (Echinochloa crus-galli; 13 g ai/ha, 20 DAT) | observed % activity (Sorghum halepense [6]; 8 DAT) | observed % activity (Sorghum halepense [6]; 20 DAT) | observed % activity (Alopecurus myosuroides [9]; 1.6 g ai/ha, 8 DAT) | observed % activity (Alopecurus myosuroides [9]; 1.6 g ai/ha, 20 DAT) | observed % activity (Alopecurus myosuroides [9]; 6.25 g ai/ha, 20 DAT) | observed % activity (Bromus inermis; 8 DAT) | observed % activity (Bromus inermis; 20 DAT) | observed % activity (Setaria faberii [14]; 6.25 g ai/ha, 8 DAT)
60%: observed % activity (Kochia scoparia [11]; 8 DAT) | observed % activity (Chenopodium album [12]; 20 DAT)

C#CCN1C(=O)C(F)(F)Oc2cc(F)c(-n3c(=O)n(C)c(=S)n(C)c3=O)cc21 [compound V-1]
60%: observed activity in % destruction (Chenopodium album [7]; 6.25 g ai/ha, 20 DAT, Table 4)
35%: observed activity in % destruction (Digitaria sanguinalis)
70%: observed activity in % destruction (Setaria faberii [15])
85%: observed activity in % destruction (Lolium multiflorum)
30%: observed activity in % destruction (Galium aparine [2]; 3.13 g ai/ha, 20 DAT, Table 4)
90%: observed activity in % destruction (Matricaria inermis [16])
